Results published in ChEMBL document CHEMBL1268927, “Antitumor activity of 3,4-dihydroquinazoline dihydrochloride in A549 xenograft nude mice” (Bioorg Med Chem Lett, 2010).

Key:
[1] = system: A549; assay: Antitumor activity against human A549 cells xenografted in BALB/c mouse assessed as inhibition of tumor weight at 2 mg/kg, iv administered once per 2 days for 4 weeks measured post last dose; format: functional
[2] = system: HeLa; assay: Cytotoxicity against human HeLa cells by MTT assay; format: functional, cell-based
[3] = system: MDA-MB-231; assay: Cytotoxicity against human MDA-MB-231 cells by MTT assay; format: functional, cell-based
[4] = system: LNCaP; assay: Cytotoxicity against human LNCAP cells by MTT assay; format: functional, cell-based
[5] = system: A549; assay: Cytotoxicity against human A549 cells by MTT assay; format: functional, cell-based
[6] = system: SK-OV-3; assay: Cytotoxicity against human SKOV3 cells by MTT assay; format: functional, cell-based
[7] = Cytotoxicity against human A172 cells by MTT assay; format: functional, cell-based, A 172
[8] = system: SK-BR-3; assay: Cytotoxicity against human SKBR3 cells by MTT assay; format: functional, cell-based
[9] = Mean residence time in Sprague-Dawley rat at 5 mg/kg, iv; format: ADME, organism-based; set-up: dose 5 mg/kg, route intravenous; conditions: in vivo
[10] = Oral bioavailability in Sprague-Dawley rat at 5 mg/kg; format: ADME, organism-based; conditions: in vivo
[11] = Cmax in Sprague-Dawley rat at 10 mg/kg, iv; format: ADME, organism-based; set-up: dose 10 mg/kg, route intravenous; conditions: in vivo
[12] = system: Mus musculus; assay: Toxicity in BALB/c mouse xenografted with human A549 cells assessed as effect on body weight at 1 to 2 mg/kg, iv QD for 28 days measured post last dose; format: organism-based; set-up: dose 1-2 mg/kg, route intravenous; conditions: in vivo, 672 h
[13] = system: Mus musculus; assay: Toxicity in ICR mouse assessed as occurrence of panting at 34.6 mg/kg, iv administered as single dose; format: organism-based; set-up: dose 34.6 mg/kg, route intravenous; conditions: in vivo
[14] = system: Mus musculus; assay: Toxicity in ICR mouse assessed as occurrence of diarrhea at 100 mg/kg, po administered as single dose; format: organism-based; set-up: dose 100 mg/kg, route oral; conditions: in vivo
[15] = Toxicity in iv dosed ICR mouse administered as single dose; format: organism-based; conditions: in vivo
[16] = system: Rattus norvegicus; assay: Half life in Sprague-Dawley rat at 5 mg/kg, iv; format: ADME, organism-based; set-up: dose 5 mg/kg, route intravenous; conditions: in vivo
[17] = system: A549; assay: Antitumor activity against human A549 cells xenografted in BALB/c mouse assessed as inhibition of tumor weight at 2 mg/kg, iv QD for 28 days measured post last dose; format: functional; conditions: A549, 672 h
[18] = Toxicity in ICR mouse assessed as mortality rate at 34.6 mg/kg, iv administered as single dose; format: organism-based; set-up: dose 34.6 mg/kg, route intravenous; conditions: in vivo, read-out: Activity
[19] = Toxicity in ICR mouse assessed as mortality rate at 26.6 mg/kg, iv administered as single dose; format: organism-based; set-up: dose 26.6 mg/kg, route intravenous; conditions: in vivo, read-out: Activity
[20] = system: Mus musculus; assay: Toxicity in ICR mouse assessed as occurrence of panting at 45 mg/kg, iv administered as single dose measured up to 10 mins; format: organism-based; set-up: dose 45 mg/kg, route intravenous; conditions: in vivo
[21] = Oral bioavailability in Sprague-Dawley rat at 10 mg/kg; format: ADME, organism-based; conditions: in vivo
[22] = Cmax in Sprague-Dawley rat at 5 mg/kg, iv; format: ADME, organism-based; set-up: dose 5 mg/kg, route intravenous; conditions: in vivo
[23] = AUC in Sprague-Dawley rat at 5 mg/kg, iv; format: ADME, organism-based; set-up: dose 5 mg/kg, route intravenous; conditions: plasma
[24] = Toxicity in ICR mouse assessed as mortality rate at 500 mg/kg, po administered as single dose; format: organism-based; set-up: dose 500 mg/kg, route oral; conditions: in vivo, read-out: Activity
[25] = system: Mus musculus; assay: Toxicity in ICR mouse assessed as appearance of solid perineal region at 500 mg/kg, po administered as single dose; format: organism-based; set-up: dose 500 mg/kg, route oral; conditions: in vivo
[26] = system: Rattus norvegicus; assay: Volume of distribution in Sprague-Dawley rat at 10 mg/kg, iv; format: ADME, organism-based; set-up: dose 10 mg/kg, route intravenous; conditions: in vivo
[27] = system: Mus musculus; assay: Toxicity in ICR mouse assessed as occurrence of erosion at 45 mg/kg, iv administered as single dose measured up to 10 mins; format: organism-based; set-up: dose 45 mg/kg, route intravenous; conditions: in vivo
[28] = system: Mus musculus; assay: Toxicity in ICR mouse assessed as loss of locomotor activity at 45 mg/kg, iv administered as single dose measured up to 10 mins; format: organism-based; set-up: dose 45 mg/kg, route intravenous; conditions: in vivo
[29] = Toxicity in po dosed ICR mouse administered as single dose; format: organism-based; conditions: in vivo
[30] = Toxicity in ICR mouse assessed as mortality rate at 250 mg/kg, po administered as single dose; format: organism-based; set-up: dose 250 mg/kg, route oral; conditions: in vivo, read-out: Activity
[31] = AUC in Sprague-Dawley rat at 10 mg/kg, iv; format: ADME, organism-based; set-up: dose 10 mg/kg, route intravenous; conditions: plasma
[32] = system: Rattus norvegicus; assay: Volume of distribution in Sprague-Dawley rat at 5 mg/kg, iv; format: ADME, organism-based; set-up: dose 5 mg/kg, route intravenous; conditions: in vivo
[33] = system: Mus musculus; assay: Toxicity in ICR mouse assessed as occurrence of diarrhea at 500 mg/kg, po administered as single dose; format: organism-based; set-up: dose 500 mg/kg, route oral; conditions: in vivo
[34] = system: Mus musculus; assay: Toxicity in ICR mouse assessed as appearance of solid perineal region at 1000 mg/kg, po administered as single dose; format: organism-based; set-up: dose 1000 mg/kg, route oral; conditions: in vivo
[35] = system: Mus musculus; assay: Toxicity in ICR mouse assessed as occurrence of inanimation at 34.6 mg/kg, iv administered as single dose; format: organism-based; set-up: dose 34.6 mg/kg, route intravenous; conditions: in vivo
[36] = system: Mus musculus; assay: Toxicity in BALB/c mouse xenografted with human A549 cells assessed as decrease in body weight at 2 mg/kg, iv administered once per 2 days for 4 weeks measured on day 8; format: organism-based; set-up: dose 2 mg/kg, route intravenous; conditions: in vivo
[37] = system: A549; assay: Antitumor activity against human A549 cells xenografted in BALB/c mouse assessed as inhibition of tumor weight at 1 mg/kg, iv QD for 28 days measured post last dose; format: functional; conditions: A549, 672 h
[38] = system: Rattus norvegicus; assay: Half life in Sprague-Dawley rat at 10 mg/kg, iv; format: ADME, organism-based; set-up: dose 10 mg/kg, route intravenous; conditions: in vivo
[39] = Mean residence time in Sprague-Dawley rat at 10 mg/kg, iv; format: ADME, organism-based; set-up: dose 10 mg/kg, route intravenous; conditions: in vivo
[40] = system: Mus musculus; assay: Toxicity in ICR mouse assessed as appearance of clinical signs at 26.6 mg/kg, iv administered as single dose; format: organism-based; set-up: dose 26.6 mg/kg, route intravenous; conditions: in vivo
[41] = Toxicity in ICR mouse assessed as mortality rate at 1000 mg/kg, po administered as single dose; format: organism-based; set-up: dose 1000 mg/kg, route oral; conditions: in vivo, read-out: Activity
[42] = system: Mus musculus; assay: Toxicity in ICR mouse assessed as appearance of clinical signs at 250 mg/kg, po administered as single dose; format: organism-based; set-up: dose 250 mg/kg, route oral; conditions: in vivo
[43] = system: Mus musculus; assay: Toxicity in ICR mouse assessed as occurrence of erosion at 34.6 mg/kg, iv administered as single dose; format: organism-based; set-up: dose 34.6 mg/kg, route intravenous; conditions: in vivo
[44] = system: Mus musculus; assay: Toxicity in ICR mouse assessed as occurrence of inanimation at 45 mg/kg, iv administered as single dose measured up to 10 mins; format: organism-based; set-up: dose 45 mg/kg, route intravenous; conditions: in vivo
[45] = system: A549; assay: Ratio of compound to doxorubicin activity against human A549 cells xenografted in BALB/c mouse at 2 mg/kg, iv; format: functional
[46] = system: Mus musculus; assay: Toxicity in ICR mouse assessed as loss of locomotor activity at 34.6 mg/kg, iv administered as single dose; format: organism-based; set-up: dose 34.6 mg/kg, route intravenous; conditions: in vivo
[47] = system: A549; assay: Antitumor activity against human A549 cells xenografted in iv dosed BALB/c mouse assessed as inhibition of tumor weight administered QD for 28 days measured post last dose; format: functional, organism-based

## COc1cccc2c1C(=O)c1c(O)c3c(c(O)c1C2=O)C[C@@](O)(C(=O)CO)C[C@@H]3O[C@H]1C[C@H](N)[C@H](O)[C@H](C)O1 [DOXORUBICIN]
[1]
  inhibition in vivo at 2 mg/kg: 30%

## CN(C)CCCCCN(C)C1=Nc2ccccc2C(CC(=O)NCc2ccccc2)N1c1ccc(-c2ccccc2)cc1 (centres undefined) [listing 1 of 2 here]
[2]; Homo sapiens, HeLa
  IC50: 4.04 µM
[3]; Homo sapiens, MDA-MB-231
  IC50: 2.65 µM
[4]; Homo sapiens, LNCaP
  IC50: 4.7 µM
[5]; Homo sapiens, A549
  IC50: 5.17 µM
[6]; Homo sapiens, SK-OV-3
  IC50: 5 µM
[7]; Homo sapiens, A 172
  IC50: 4.83 µM
[8]; Homo sapiens, SK-BR-3
  IC50: 2.17 µM

## CN(C)CCCCCN(C)C1=Nc2ccccc2C(CC(=O)NCc2ccccc2)N1c1ccc(-c2ccccc2)cc1.Cl.Cl (centres undefined)
[2]; hela
  IC50: 3.11 µM
[9]
  MRT: 5.09 h
[3]; mda-mb-231
  IC50: 1.64 µM
[10]
  bioavailability: 98.3%
[11]
  Cmax: 1.03 µg/mL
[12]
  Activity: Non-toxic
[13]
  Activity: Toxic
[4]; lncap
  IC50: 5.19 µM
[14]
  Activity: Toxic
[15]
  LD50: 40 mg/kg
[16]
  t1/2: 8.716 h
[17]
  inhibition in vivo at 2 mg/kg: 49%
[18]
  mortality: 20%
[5]; a549
  IC50: 5 µM
[19]
  mortality: 0%
[20]
  Activity: Toxic
[21]
  bioavailability: 70.1%
[22]
  Cmax: 0.46 µg/mL
[23]
  AUC: 128 µg·h/mL
[24]
  mortality: 40%
[25]
  Activity: Toxic
[26]
  Vd: 0.61 L/kg
[6]; sk-ov-3
  IC50: 5.22 µM
[27]
  Activity: Toxic
[28]
  Activity: Toxic
[29]
  LD50: 693 mg/kg
[30]
  mortality: 0%
[31]
  AUC: 279 µg·h/mL
[32]
  Vd: 0.33 L/kg
[33]
  Activity: Toxic
[34]
  Activity: Toxic
[35]
  Activity: Toxic
[36]
  Activity: Toxic
[7]; a 172
  IC50: 4.61 µM
[37]
  inhibition in vivo at 1 mg/kg: 29%
[38]
  t1/2: 19.8715 h
[39]
  MRT: 7.19 h
[40]
  Activity: Toxic
[41]
  mortality: 80%
[8]; sk-br-3
  IC50: 1.83 µM
[42]
  Activity: Non-toxic
[43]
  Activity: Toxic
[44]
  Activity: Toxic
[45]
  Ratio: 1.6
[46]
  Activity: Toxic

## CN(C)CCCCCN(C)C1=Nc2ccccc2C(CC(=O)NCc2ccccc2)N1c1ccc(-c2ccccc2)cc1 (centres undefined) [listing 2 of 2 here]
[47]
  inhibition: Dose-dependent effect
